Values of other authors as cited in PMC8127065 (Journal of controlled release : official journal of the …, 2021).

Q: For C=CC[C@@H]1/C=C(\C)C[C@H](C)C[C@H](OC)[C@H]2O[C@@](O)(C(=O)C(=O)N3CCCC[C@H]3C(=O)O[C@H](/C(C)=C/[C@@H]3CC[C@@H](O)[C@H](OC)C3)[C@H](C)[C@@H](O)CC1=O)[C@H](C)C[C@@H]2OC [Tacrolimus], which water solubility is on record?
A: The water solubility was 1 to 2 µg/mL.
